The values that follow come from patent publication US8030493B2, “Monovalent and divalent salts of N-(5-hydroxynicotinoil) -L-glutamic acid exhibiting psychotropic (antidepressant and anxiolytic), neuroprotective, geroprotective and cerebroprotective action” (Obschestvo S Ogranichennoy Otvetstvennostyu “Natsionalnaya …, priority 2006, dated 2011).

Format in all cases: in vivo
One experiment deals with mice SAM P 10. As to the kind of experiment: Antidepressant activity: forced swimming in mice SAM. The following applies: 10 mg/kg, first 6 minutes of forced swimming. The protocol: Exp. Gerontolol. 1997, […]. et al. Age-related deterioration in conditional avoidance task in the SAM-P/10 mouse, an animal model of spontaneous brain atrophy. Brain Res., 1993, v. 608, p. 266-272). To assess depressive condition the method of forced swimming was used (Porsolt R. D. et al., Behavioral despair in rats: a new model sensitive to antidepressant treatment. Europ. J. […] The mice were placed into cylinder 10 cm in diameter and 25 cm height. Cylinder was filled with water by 1⁄3 (27° C.). After unsuccessful attempts to get out of the water the animals have typical immovable posture, which is regarded as manifestation of “despair”.

The subject of the next experiment is rats with amnesia. Put plainly: Antiamnestic activity: passive avoidance response (PAR) with amnesia by maximum electric shock. The settings on record: rats with electric shock amnesia, 24 hours after learning. The procedure: White nondescript male rats with body weight 250-280 g were used in the experiments. Each dose level was studied in 10 animals. Control animals received equivalent volume of distilled water. Nooglutyl was used as reference agent. Study compounds were administered intraperitoneally 40 minutes before the experiment. Experiment was carried out on the standard automated unit for passive avoidance response (Passive Avoidance) supplied by Lafayette Instrument Co., (USA) (Ader et al. Retention of a passive avoidance response as a function of the intensity and duration of electric shock. Psycho Sci. 1972, v. 26, p. 125-128; Voronina T. A. et al. “Textbook for Experimental (Preclinical Study) of novel pharmacological compounds”. Moscow, Medicina. 2005, p. 253-263 and 308-320). The unit was designed as small platform situated 1 m above the floor, which was illuminated with special lamp, and dark chamber with electrode floor connected with the platform. The rat was placed on illuminated platform in front of the entry to the dark chamber with its tail directed to the entry; the animal preferred dark chamber and quickly ran into it. In the dark chamber the animal received single pain stimulus with electric current (0.45 mA) and memorized that it was dangerous to enter dark chamber. Duration of the stimulus was determined from the running out of the animal from the dark chamber. To achieve amnesia maximum electric shock was used (50 Hz, 0.2 sec), which was made through corneal electrodes immediately after learning. Electric shock caused obliteration of the memory trace. Test for reproduction of passive avoidance response (PAR) (for retention of memory trace) was performed 24 hours after learning session and electric shock. The animal was placed on illuminated platform once again, and time of the presence on illuminated platform and dangerous dark chamber (no current was conducted to the floor during reproduction of PAR).
Control trained animals with reproduction of PAR without electric shock preferred to stay on illuminated platform. Obliteration of training with electric shock causes amnesia in the animals; as a result, the animals with short latent period enter dark chamber and stay there considerably longer than animals without amnesia (Table 2).

Experiment [1] has as its system mice exposed to hypoxia in hermovolume. Put plainly: Hypoxia with hypercapnia in hermovolume. The protocol:
(§1) White nondescript male mice with body weight 22-28 g were used in the experiments. Each dose level was studied in 10 animals. Control animals received equivalent volume of distilled water. Nooglutyl was used as reference agent. Study compounds were administered intraperitoneally 40 minutes before the experiment.
(§2) Acute hypobaric hypoxia was simulated in flow-exhaust chamber. Pressure was measured with altimeter, and elevation speed with variometer. The animals were “elevated” at the speed 20 m/s to the stage at 11000 m. The exposure lasted 10 minutes. Then the animals were mover down to the baseline level for 5 minutes. Hypoxia with hypercapnia in hermovolume was created by placement of the animal into 200 ml hermetically sealed glass vessels. Life period of the animals under hypoxic conditions was recorded. Each group comprised 10 animals.

Experiment [2] relates to mice exposed to hypobaric hypoxia. Put plainly: Acute hypobaric hypoxia in flow-exhaust chamber. The protocol: as §1, §2
Experiment [3] concerns rats with hemorrhagic stroke. As to the kind of experiment: Hemorrhagic stroke: reproduction of passive avoidance response. The settings on record: Nimodipin at 01.mg/kg. An excerpt: White nondescript male rats with body weight 200-250 g, which lived in vivarium and had feed (standard palletized feed) and water ad libitum, with natural alternation of day and night, were used in the experiments. Hemorrhagic stroke (local cerebral hemorrhage) was simulated according to method by A. N. Makarenko et al. (Method of local hemorrhage simulation I various structures of the brain in experimental animals. Journal Visshei Nervnoy Deyatelnosti—Journal of Higher Nervous Activities, 2002, v. 52, No 6, p. 765-768). In nembutal-anesthetized rats (40 mg/kg, i.m.) destruction of the brain tissue in capsule interna area was made with the use of special device (mandarin-knife) followed by application of blood (0.02-0.03 ml) taken from under the rat's tongue to the damaged area (within 2-3 minutes). False-operated animals underwent scalping and craniotomy. The animals were divided into 5 groups: intact rats, false-operated rats, animals with hemorrhagic stroke received nooglutyl at 20 mg/kg, and animals with hemorrhagic stroke received Compound I at 20 mg/kg. Effects were recorded within 24 hours and 14 days after the surgery. Learning ability and memory of the rats was examined in the model of passive avoidance response (PAR, Passive Avoidance supplied by Lafayette Instrument Co., USA). To determine neurological deficit in the animals Stroke-index McGrow scale modified by I. V. Gannushkina (Functional architectonics of the brain, Moscow, Medicina, 1977, 224 p.) was used. The severity of the condition was determined by the sum of the points. The number of rats with mild symptoms up to 2.5 points of Stroke-index scale (apathy, weakness of the extremities, unilateral semiptosis, tremor, circus movements) and severe manifestations of neurological disorders (3 to 10 points)—paresis of the extremities, palsy of low extremities, lateral position. The animals received single dose of nooglutyl and Compound I at the same dose 20 mg/kg intraperitoneally within 3-3.5 hours after the surgery. Controlled animals were treated with saline. At onset of the experiment each group comprised 15-20 animals. Mortality of the rats was recorded throughout the observation period (14 days). Statistical analysis was made using parametrical and non-parametrical methods and Biostat software. Nimodipin administered at 01.mg/kg according to above scheme was considered as a standard.

[4] abbreviates: 30 mg/kg intraperitoneally 40 minutes before the experiment.
Setting [5] is: 60 mg/kg intraperitoneally 40 minutes before the experiment.
The mark [6] stands for this setting: 120 mg/kg intraperitoneally 40 minutes before the experiment.
[7] abbreviates: PAR reproduction within 24 hours.
Where [8] appears, read: PAR reproduction within 14 days.

Molecules are shown by their SMILES.

Turning to `CN(C)CCC=C1c2ccccc2CCc2ccccc21` [Amitryptilin, reference compound], in the experiment on mice SAM P 10, the “Period of active behaviour” value was found to be 225.10 ± 25.19 s.
As for `O=C([O-])CC[C@H](NC(=O)c1cncc(O)c1)C(=O)[O-].[Na+].[Na+]` [Compound II, di-Na salt of N-(5-hydroxynicotinoyl)-L-glutamic acid], the “Time of presence of animals while PAR reproduction (seconds) in the dark chamber” value with rats with amnesia (25 mg/kg intraperitoneally) is 78.7 ± 12.3 s; in the experiment on rats with amnesia (50 mg/kg intraperitoneally) it was 67.5 ± 15.1 s. Further, the “Time of presence of animals while PAR reproduction (seconds) on the illuminated platform” value came to 41.3 ± 11.6 s in the experiment on rats with amnesia (25 mg/kg intraperitoneally) and 52.5 ± 12.3 s with rats with amnesia (50 mg/kg intraperitoneally). The “Life interval of mice (minutes) exposed to hypoxia in hermovolume” value in experiment [1] (setting [4]) came out at 14.1 ± 0.71 min; in experiment [1] (setting [5]), 16.3 ± 0.64 min; in experiment [1] (setting [6]) it was 17.8 ± 0.69 min. Also, the “Life interval of mice (minutes) exposed to hypobaric hypoxia” value came to 6.51 ± 0.82 min in experiment [2] (setting [4]) and 5.95 ± 0.84 min in experiment [2] (setting [5]).
For `O=C([O-])CC[C@H](NC(=O)c1cncc(O)c1)C(=O)[O-].[K+].[K+]` [Compound III, di-K salt of N-(5-hydroxynicotinoyl)-L-glutamic acid], the results for the “Time of presence of animals while PAR reproduction (seconds) in the dark chamber” value with rats with amnesia (25 mg/kg intraperitoneally) and in the experiment with rats with amnesia (50 mg/kg intraperitoneally) were 70.7 ± 9.4 s and 68.6 ± 7.1 s, respectively. Further, the “Time of presence of animals while PAR reproduction (seconds) on the illuminated platform” value in the experiment with rats with amnesia (25 mg/kg intraperitoneally) was 49.3 ± 10.1 s; with rats with amnesia (50 mg/kg intraperitoneally) it was 51.4 ± 9.8 s. For the same compound, the entries for the “Life interval of mice (minutes) exposed to hypoxia in hermovolume” value in experiment [1] (setting [4]), in experiment [1] (setting [5]) and in experiment [1] (setting [6]) were 14.2 ± 0.39 min, 15.9 ± 0.45 min and 17.4 ± 0.65 min, respectively. Moreover, the “Life interval of mice (minutes) exposed to hypobaric hypoxia” value in experiment [2] (setting [4]) amounted to 3.91 ± 0.63 min; in experiment [2] (setting [5]), 5.52 ± 0.54 min.
As for `COCCOC(=O)C1=C(C)NC(C)=C(C(=O)OC(C)C)C1c1cccc([N+](=O)[O-])c1` (centres unmarked) [Nimodipin], the “Latent period of entry to dark chamber (c)” value came out at 123.7 ± 19.6 c in experiment [3] (setting [7]) and 77.5 ± 32.8 c in experiment [3] (setting [8]). Moreover, the “Number of animals, which did not enter dark chamber (%)” value in experiment [3] (setting [7]) is on record as 58%; in experiment [3] (setting [8]), 33$ %.
